Reference: patent US10118943B2, “Compounds and methods for inhibiting cell death” (Ramot at Tel-Aviv University Ltd., priority 2012, dated 2018)
“Also recorded” adds a separate entry of the source.

Columns and labels:
[1] = tested on: PC12 cells; test: PC12 cell survival assay, zinc toxicity, MTS (Example 1); conditions: 400 μM zinc, 4 hrs, peptide 10^−9M
Protocol: PC12 cells (Pheochromocytoma cells) (ATCC, Bethesda, Md., USA) were seeded at 3×10^4 cells/cm^2 on poly-L-Lysine coated plastic tissue culture dishes (Corning, Lowell, Mass., USA) to form an adherent monolayer. Cells were maintained in Dulbecco's modified Eagle's medium (DMEM) supplemented with 10% horse serum (HS), 5% fetal calf serum (FCS), 2 mM glutamine, 100 U/ml penicillin and […] streptomycin (Biological Industries, Beit Haemek, Israel). PC12 differentiation was induced by nerve growth factor (NGF, Sigma) at concentrations of 50 ng/ml by replacing half of the medium every other day until the cells acquired a differentiated morphology. Differentiated cells were defined as bearing two or more neurites with lengths equal to or more than twice the diameter of the cell body (P. Lamoureux et al., The Journal of cell biology 110, 71 (January, 1990)). The cells were incubated in 5% CO2 in a humidified incubator at 37° C. The cells were sub-cultured every 5 days at a 4:1 split ratio by pipetting. The medium was changed every 2 or 3 days after adhesion.
Transfections were performed using Lipofectamine RNAiMAX (Invitrogen). Transfection was carried out according to manufacturer's protocol. For rat MAPRE3 knockdown, PC12 cells or neurons were plated in growth medium without antibiotics at concentration of 10^4 cells/0.32 cm^2 such that they will be 30-50% confluent at the time of transfection. To obtain the highest transfection efficiency and low non-specific effects, siRNA transfection was performed in the following optimized conditions: 50 nM for neurons and 25 nM PC12 of each siRNA construct with 0.2 μl Lipofectamine RNAiMAX (Invitrogen) was added per well of the 96-well plate and scaled up for different 24 or 6-well plates, according to the manufacturer's instructions. The medium was changed one day after transfection. 48 and 72 hours later, cells were harvested to assay for gene knockdown at the RNA and protein levels.
The cells were incubated for 4 hrs at 37° C. 5% CO2. Survival was measured using the MTS assay.
Metabolic activity of cells was measured by the CellTiter 96® Aqueous Non-Radioactive Cell Proliferation kit in accordance with the manufacturer's instructions (Promega). The assay uses a colorimetric method for determining the number of viable cells employing a tetrazolium compound [3-(4,5-dimethylthiazol-2-yl)-5-(3-carboxymethoxyphenyl)-2-(4-sulfophenyl)-2H-tetrazolium, MTS] and an electron-coupling reagent, phenazine methosulfate (PMS). MTS is bio-reduced by cells into a formazan product that is detected at 490 nm. The conversion of MTS into the formazan form is accomplished by dehydrogenase enzymes found in metabolically active cells. Thus, the quantity of formazan product as measured by the amount of 490 nm absorbance is directly proportional to the number of living cells in culture (A. H. Cory, T. C. Owen, J. A. Barltrop, J. G. Cory, Cancer Commun 3, 207 (July, 1991)).

[2] = biological target: T1, full-length human EB3 recombinant protein (Homo sapiens, UniProt Q9UPY8); test: Sulfolink coupling gel-NAP affinity chromatography with recombinant EB3, western analysis; type: binding; conditions: 2 mg soluble peptide incubated with recombinant EB3 and column beads
T1 construct: Full-length human EB3 was subcloned into pEX-N-His vector; 6xHis (N, cleaved yes); made in house; host or cells: E. coli BL21(DE3)
T1 sequence (Q9UPY8 whole entry): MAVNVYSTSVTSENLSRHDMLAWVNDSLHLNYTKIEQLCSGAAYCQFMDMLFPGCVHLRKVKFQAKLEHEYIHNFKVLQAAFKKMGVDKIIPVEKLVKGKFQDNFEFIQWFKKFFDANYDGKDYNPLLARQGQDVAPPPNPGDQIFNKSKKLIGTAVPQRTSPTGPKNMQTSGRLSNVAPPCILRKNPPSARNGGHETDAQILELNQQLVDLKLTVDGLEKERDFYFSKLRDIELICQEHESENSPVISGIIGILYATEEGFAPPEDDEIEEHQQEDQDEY
Protocol: Column load, flow through, wash and elution fractions were further analyzed by polyacrylamide gel electrophoresis, followed by western analysis with EB3 antibodies. […] Column chromatography, elution and western blots were performed as above. The extract fractions (flow, wash and elution) were separated by electrophoresis followed by protein detection (FIG. 6).

[3] = tested on: primary cortical neurons; test: PSD-95 density in primary cortical neuron culture; type: cell-based, rat; conditions: neurons treated for 2 hrs
Protocol: Methods: 1. Primary cultures of neurons were prepared as follows. Newborn rats were sacrificed on postnatal day 1. Cerebral cortex tissue was then dissected and dissociated individually from each pup with the Papain Dissociation System (PDS; Worthington Biochemical Corporation) according to the manufacturer's instructions. 2. Cells were fixed with ice cold methanol, blocked with 2% bovine serum albumin (BSA) and 5% normal goat serum in Tris buffered saline containing tween 20 (TBS-T; 20 mM Tris pH 7.5, 136.8 mM NaCl, and 0.05% v/v Tween 20), and incubated with primary antibody followed by the appropriate secondary antibody. 3. Primary antibodies that were used include: monoclonal anti PSD-95 (ab-2723, Abcam), monoclonal anti Tyr-α-tubulin antibody (YL1/2) (VMA1864, Abcys, Paris, France), polyclonal anti Glu-α-tubulin antibody (L4) (AbC0101, Abcys, Paris, France), DyLight 488-labeled secondary goat anti-mouse IgG, DyLight 633-labeled secondary goat anti-rabbit IgG (KPL, Gaithersburg, Md., USA), Cy3-conjugated secondary goat anti-Rat IgG, (Jackson ImmunoResearch). 4. Images were collected with a Leica SP5 confocal laser scanning microscope (Mannheim, Germany) with 63× oil immersion optics, laser lines at 488, 561, 633 nm. Identical confocal laser scanning microscopy (CLSM) parameters (e.g., scanning line, laser light, gain, and offset etc.) were used for control and NAP treated cells.
For instance, a PSD-95 expression assay using primary cortical neuron cultures established from suitable animals may be performed to confirm a compound's activity in promoting cell plasticity. More specifically, primary cultures of neurons are prepared by first taking cerebral cortex tissue from newborn rats on postnatal day 1. The cerebral cortex tissue is then dissected and dissociated individually from each animal. Cells are fixed with ice cold methanol, blocked (e.g., with bovine serum albumin (BSA) and normal goat serum), and incubated with primary antibody (e.g., monoclonal antibody against PSD-95), optionally followed by the appropriate secondary antibody for imaging purposes. Images of primary neuronal cultures are taken and compared between cultures with or without being exposed to a test compound. An increased PSD-95 expression is indicative of the test compound being capable of promoting or protecting cell plasticity, especially neuronal plasticity.
Cerebral cortex tissue from newborn rats was dissected and dissociated individually from each pup with the Papain Dissociation System (PDS), (Worthington Biochemical Corporation) according to the manufacturer's instructions. Cortical neurons were maintained in Neurobasal medium (NB), (Gibco) supplemented with NeuroCult B27-SM1 ([…]), 1% Glutamax (Gibco), and grown on poly-D-lysine-coated cell culture glass cover slips.
Images were collected with a Leica SP5 confocal laser scanning microscope (Mannheim, Germany) with 63× oil immersion optics, laser lines at 488, 561, 633 nm or with LSM 510 META (Zeiss, Jena, Germany) confocal laser scanning microscope with 63× oil immersion optics, laser lines at 488, 568, 633 nm. When comparing fluorescence intensities, identical CLSM parameters (e.g., scanning line, laser light, gain, and offset etc.) were used. All of the fluorescent signals acquired were above the autofluorescent background as measured from a control slide stained with secondary antibody without a primary antibody. To compare the relative levels of protein expression, the average integrated density (AID) image analysis procedure was used for cell immunostains. In brief, integrated density is defined by the sum of the values of the pixels in the selected region of interest (ROI). This is equivalent to the product of Area and Mean Gray Value. AID for the positive stained area was determined by measuring the fluorescent intensity of the ROI, which is above the positive cut-off intensity. […]

[4] = tested on: astrocytes; test: MT organization in astrocytes (FIG. 14); type: cell-based, rat
Protocol: Newborn rats (Harlan, Jerusalem, Israel) were sacrificed by decapitation, and the brain was removed (D. E. Brenneman et al., J Pharmacol Exp Ther 309, 1190 (June, 2004)). The tissue was minced with scissors and placed in Hank's balanced salts solution 1 (S1), containing HBSS (Biological Industries, Beit Haemek, Israel), 15 mM HEPES buffer, pH 7.3 (Biological Industries, Beit Haemek, Israel), and 0.25% trypsin (Biological Industries) in an incubator at 37° C. 5% CO2 for 20 min. The cells were then placed in 5 mL of solution 2 (S2) containing 10% heat inactivated fetal serum (Biological Industries), 0.1% gentamycin sulphate solution (Biological Industries), and 0.1% penicillin-streptomycin-nystatin solution (Biological Industries) in Dulbecco's modified Eagle's medium (DMEM, Sigma, Rehovot, Israel). The cells were allowed to settle and are then transferred to a new tube containing 2.5 mL of S2 and triturated using a Pasteur pipette. Cell density was determined using a hemocytometer (Neubauer Improved, Germany) and 15×10^6 cells/15 mL S2 are inoculated into each 75-cm^2 flask (Corning, Corning, N.Y., USA). Cells are incubated at 37° C. 10% CO2. The medium was changed after 24 h, and cells are grown until confluent.
The flasks were shaken to dislodge residual neurons and oligodendrocytes that may be present. Flasks were then washed with 10 mL cold HBSS×1, HEPES 15 mM. 5 mL of versene-trypsin solution (BioLab, Jerusalem, Israel) were added to each flask, and the flasks are incubated at room temperature for 5 min to remove astrocytes. The flasks were shaken to dislodge the cells. The versenetrypsin solution was neutralized with 5 mL of S2. The cell suspension was collected and centrifuged at 100 g for 10 min. The supernatant was removed and the cells resuspended in S2. Cells were inoculated into 75-cm^2 flasks or plated in 35-mm dishes (Corning, Corning, N.Y., USA) and incubated until confluence at 37° C. 10% CO2. […]

[5] = tested on: PC12 cells; conditions: ZnCl2 400 μM, peptide 10^−13M
Protocol: FIG. 15: Rat pheochromocytoma cells (PC12) were seeded on Poly-D-Lysine coated 96-well tissue culture dishes in high concentration (30,000 cells/well). On the day of the experiment the cells were treated with ZnCl2 (400 μM) either alone or in combination with different concentration of SKIP for 4 h. After 4 h the cell viability was analyzed by MTS assay. […] All values are from one experiment performed in hexplicate.
Rat pheochromocytoma cell (PC12, ATCC, Bethesda, Md., USA) were grown in 10-cm tissue culture dishes (Corning). The base medium for this cell line was RPMI-1640 Medium (Invitrogen) supplemented with 10% heat-inactivated horse serum, 5% fetal bovine serum and solution containing 100 U/ml penicillin together with […] streptomycin (Biological Industries, Beit Haemek, Israel). The cells were incubated in 95% air; 5% CO2 in a humidified incubator at 37° C. The medium was changed every 2 to 3 days. The cells were subcultured when cell density reached 4×10^6 cells/ml. The cells were split in a ratio of 1:4.
On the day before the experiment cells were to be harvested, re-suspended and seeded on tissue culture dishes. For cell viability measurements, cells were seeded on Poly-D-Lysine coated 96-well tissue culture dishes (Sigma-Aldrich) at a concentration of 3×10^4 cells/well.
The cell viability is measured by colorimetric method that determines the number of viable cells in culture. This method is based on the bio-reduction of the tetrazolium compound [3-(4,5-dimethylthiazol-2-yl)-5-(3-carboxymethoxyphenyl)-2-(4-sulfophenyl)-2H-tetrazolium; MTS] by living cells into a colored formazan product. This reaction is occurring in the presence of an electron coupling reagent (phenazine ethosulfate; PES). The amount of formazan product is measured by ELISA plate reader at 490 nm and is directly proportional to the number of living cells in culture (CellTiter 96® AQueous One Solution Cell Proliferation Assay; Promega, Madison, Wis., USA).

Acetyl-NAPVSKIPQ-NH2 (Ac-NAPVSKIPQ-NH2) was tested, and the “protection against cell death induced by zinc toxicity (MTS survival)” value (shortened to “protection against cell death induced”) [1] was “provided protection against zinc toxicity”, the “protection against cell death induced” value ([1]; listed as Ac-SKIP) was “significantly increased survival” and the “protection against cell death induced” value ([1]; listed as Acetyl-NAPVSKIPQ) was “significantly increased survival”.
With NAPVAAAAQ [negative control peptide] the “competition for EB3 binding to column-bound NAP” value [2] was “no competition” and the “derivative peptides effect on PSD-95 density vs vehicle controls (FIG. 10c)” value [3] was “did not enhance PSD-95 staining; also recorded: not affected”.
In the case of NAPVAIPQ [NAPVAIPQ (S5A)], the “activity of NAP-like peptide (FIG. 14)” value [4] is reported as “inactive”.
For NAPVSAIPQ [negative control peptide], the “competition for EB3 binding to column-bound NAP” value [2] was “no competition” and the “derivative peptides effect on PSD-95 density vs vehicle controls (FIG. 10c)” value [3] was “did not enhance PSD-95 staining; also recorded: not affected”.
For “NAPVSGIPQ (synthetic novel peptide core sequence derived from hybrid microtubule end-binding protein 3 (EB3)-binding microtubule plus-end tracking proteins (+TIPs) and activity- dependent neurotrophic factor (ADNF) active core site (NAP)) [NAPVSGIPQ (SEQ ID NO:5)]”, the “protection against Zn toxicity (MTS viability vs Zn alone)” value [5] was “showed protection”.
For NAPVSIAQ [NAPVSIAQ (P7A)], the “activity of NAP-like peptide (FIG. 14)” value [4] was “inactive” and the “effect on MT organization” value ([4]; 4 hours of incubation) was “did not mimic NAP activity”.
For NAPVSRIPQ, the “protection against cell death induced” value [1] was “inactive”.
NAPVTRIPQ was tested, and the “protection against cell death induced” value [1] was “inactive”.
